Reference: publication PMC3961306, “Comparison of the Cancer Gene Targeting and Biochemical Selectivities of All Targeted Kinase Inhibitors Approved for Clinical Use” (PLoS ONE, 2014)
Where two headings read alike, the source gives them in different places. Values belong to the compound of their own block, whether it stands above or below them.

System: forty-four human cancer cell lines
Experiment: Cell proliferation assay (ATPlite, 72 hours) in the 44 cell line Oncolines panel
Format: cell-based
Conditions: Homo sapiens

IC50 (769-P, cell line 769-P, read-out: cell panel IC50, 769-P): 4.74 µM | IC50 (786-0, cell line 786-0, read-out: cell panel IC50, 786-0): 2.21 µM | IC50 (A 172, read-out: cell panel IC50, A-172, cell line A-172): 0.987 µM | IC50 (A204, cell line A-204, read-out: cell panel IC50, A-204): 1.42 µM | IC50 (A498, read-out: cell panel IC50, A-498, cell line A-498): 1.7 µM | IC50 (A549, read-out: cell panel IC50, A-549, cell line A-549): 1.18 µM | IC50 (A-375, cell line A375, read-out: cell panel IC50, A375): 3.66 µM | IC50 (A-427, read-out: cell panel IC50, A-427, cell line A-427): 1.82 µM | IC50 (ACHN, cell line ACHN, read-out: cell panel IC50, ACHN): 2.45 µM | IC50 (AN3-CA, cell line AN3 CA, read-out: cell panel IC50, AN3 CA): 7.34 µM | IC50 (AU565, read-out: cell panel IC50, AU-565, cell line AU-565): 1.01 µM | IC50 (BT-20, cell line BT-20, read-out: cell panel IC50, BT-20): 6.34 µM | IC50 (BT-549, read-out: cell panel IC50, BT-549, cell line BT-549): 1.85 µM | IC50 (BXPC-3, cell line BxPC-3, read-out: cell panel IC50, BxPC-3): 5.18 µM | IC50 (C-33-A, cell line C-33 A, read-out: cell panel IC50, C-33 A): 4.61 µM | IC50 (CAL-27, cell line CAL 27, read-out: cell panel IC50, CAL 27): 4.07 µM | IC50 (CCRF-CEM, cell line CCRF-CEM, read-out: cell panel IC50, CCRF-CEM): 15.1 µM | IC50 (DLD-1, cell line DLD-1, read-out: cell panel IC50, DLD-1): 1.03 µM | IC50 (FaDu, cell line FaDu, read-out: cell panel IC50, FaDu): 1.13 µM | IC50 (HCT-15, cell line HCT-15, read-out: cell panel IC50, HCT-15): 1.84 µM | IC50 (HCT-116, read-out: cell panel IC50, HCT-116, cell line HCT-116): 1.27 µM | IC50 (Hs-578T, cell line Hs 578T, read-out: cell panel IC50, Hs 578T): 7.95 µM | IC50 (Jurkat E6.1, cell line Jurkat E6.1, read-out: cell panel IC50, Jurkat E6.1): 3.34 µM | IC50 (K562, read-out: cell panel IC50, K-562, cell line K-562): 5.53 µM | IC50 (LS174T, read-out: cell panel IC50, LS 174T, cell line LS 174T): 4.8 µM | IC50 (LoVo, cell line LoVo, read-out: cell panel IC50, LoVo): 3.2 µM | IC50 (MG-63, cell line MG-63, read-out: cell panel IC50, MG-63): 3.03 µM | IC50 (MOLT-4, cell line MOLT-4, read-out: cell panel IC50, MOLT-4): 2.07 µM | IC50 (MeWo, cell line MeWo, read-out: cell panel IC50, MeWo): 4.28 µM | IC50 (NCI-H82, cell line NCI-H82, read-out: cell panel IC50, NCI-H82): 1.92 µM | IC50 (NCI-H460, cell line NCI-H460, read-out: cell panel IC50, NCI-H460): 1.59 µM | IC50 (OVCAR-3, cell line OVCAR-3, read-out: cell panel IC50, OVCAR-3): 3.46 µM | IC50 (RPMI-7951, cell line RPMI-7951, read-out: cell panel IC50, RPMI-7951): 1.22 µM | IC50 (SHP77, cell line SHP-77, read-out: cell panel IC50, SHP-77): 22.8 µM | IC50 (SK-N-AS, cell line SK-N-AS, read-out: cell panel IC50, SK-N-AS): 2.58 µM | IC50 (SW48, cell line SW48, read-out: cell panel IC50, SW48): 1.86 µM | IC50 (SW480, cell line SW480, read-out: cell panel IC50, SW480): 1.73 µM | IC50 (SW-620, cell line SW620, read-out: cell panel IC50, SW620): 4.2 µM | IC50 (U2OS, cell line U-2 OS, read-out: cell panel IC50, U-2 OS): 2.46 µM | IC50 (U-87 MG, 72 h, U-87 MG cell line, ATPlite, 72 hours, read-out: IC50 in cell proliferation assay (table S5 cellpanel data)): 2.46 µM | IC50 (cell line J82, read-out: cell panel IC50, J82): > 31.6 µM | IC50 (cell line PA-1, read-out: cell panel IC50, PA-1): 0.814 µM | IC50 (cell line SJCRH30, read-out: cell panel IC50, SJCRH30): 7.21 µM | IC50 (cell line SR, read-out: cell panel IC50, SR): 0.546 µM
Compound: O=c1[nH]cc(F)c(=O)[nH]1 [5-fluorouracil]

Compound: CNC(=O)c1ccccc1Sc1ccc2c(/C=C/c3ccccn3)n[nH]c2c1 [axitinib]
IC50 (4-4 cell, read-out: cell panel IC50, PA-1): 1.29 µM | IC50 (A498, read-out: cell panel IC50, A-498): 3.21 µM | IC50 (A-375, read-out: cell panel IC50, A375): 5.65 µM | IC50 (HCT-116, read-out: cell panel IC50, HCT-116): 2.29 µM | IC50 (SHP77, read-out: cell panel IC50, SHP-77): 5.57 µM
